Reference: patent publication US20100003217A1, “Compounds and Pharmaceutical Compositions for the Treatment of Viral Infections” (priority 2008, published 2010)
Values joined by “and” are separate entries in the source; they are usually repeats but may differ in a detail not shown here. Equal entries are not always repeated.

Columns and labels:
[1] = Metabolite profile in rat feces; assay type: in vivo, male Sprague-Dawley rats; details: for Percent of Dose, Feces 0-24 h: after [14C]Compound 1; for % AD / % HPLC (percent of HPLC peak area in the sample extract) / fecal component, % of the administered dose (% AD): 24 h collection; for % of the total fecal excretion / fecal component, % of the administered dose (% AD): rat feces
Protocol: Pooled samples were prepared for the 24 h time interval from Groups 1C and 2C by combining a fixed percentage of the total weight of each individual animal sample homogenate for each group. The aliquots were pooled in a 15-mL polypropylene centrifuge tube. To the pooled sample (approximately 3 g each), 4.5 mL of MeOH-water (70:30) was added. The sample was vortexed for one minute, sonicated for 10 minutes, and then centrifuged at 5700×g for 10 minutes. The supernatant was transferred to a tube and the total volume of the supernatant was measured. The extraction procedure was repeated two additional times. The radioactivity in each extract was determined by LSC of duplicate aliquots (20 μL each) for extraction recovery. A portion (10% of total volume) of each extract was pooled for analysis by LSC and HPLC. The combined extracts were diluted (1:4) with aqueous mobile phase and analyzed using HPLC method 1 to obtain the metabolic profile. For comparing the in vitro with the in vivo metabolism data, these same fecal samples were analyzed by HPLC method 2.
Percent of the administered dose (% AD) for parent drug and each metabolite at each collection period=(% of the total radioactivity in the sample attributed to the metabolite)*(total radioactivity expressed as % of the administered dose, recovered during the corresponding collection period).
The samples were analyzed by HPLC with radiochemical detection. The distribution of metabolites as % of the administered dose was derived from these analyses. Both pooled fecal extracts were also analyzed by HPLC method 2. Metabolites R^1, R^2, R^3, R^4, R^5, R^6, R^7 and R^8 were characterized based on retention time.

[2] = Metabolite profiling in rat liver microsomes; assay type: in vitro ADME; design: key: +: peak detected; ?: peak observed; ND: not detected; details: 50 μM Compound 1, 2 hours
Protocol: (§1) Preliminary identification of putative metabolites was conducted by comparing the retention time of observed metabolites with retention times obtained with chemically synthesized standards using the following HPLC-UV method:
(§2) Incubations with liver microsomes, liver cytosol or pig liver esterase were conducted in a final volume of 0.1 mL per incubation time point. Pooled microsomal protein (1.0 mg/mL) suspended in incubation buffer (0.1 M potassium phosphate, pH 7.4) was incubated for 2 hours at 37° C. with 50 μM Compound 1 from a stock solution in DMSO (final DMSO concentration was 0.1%); the microsomal reaction was initiated by the addition of an NADPH regenerating system (1.3 mM NADP^+, 3.3 mM glucose-6-phosphate, 0.4 U/ml glucose-6-phosphate dehydrogenase, and 3.3 mM MgCl2, final concentrations). Incubations with no NADPH or no protein served as controls. Reactions were terminated by the addition of 0.1 mL of stop solution (acetonitrile). The samples were vortex-mixed for 30 sec and then centrifuged at 10,000×g for 10 min. The supernatant was dried using a Labconco CentriVap concentrator and the dry residue reconstituted in water, transferred to an HPLC glass vial and analyzed by HPLC-UV method 2 (described above).
Results: Preliminary identification was accomplished by comparing LC elution of metabolites with that of available synthetic standards of putative metabolites (FIG. 2). […]

[3] = Metabolite profiling in human liver microsomes; assay type: in vitro ADME; design: key: +: peak detected; ?: peak observed; ND: not detected; details: 50 μM Compound 1, 2 hours
Protocol: as §1, §2
(§3) Results: Preliminary identification was accomplished by comparing LC elution of metabolites with that of available synthetic standards of putative metabolites (FIG. 2). Metabolites U1, U2 and U3 were characterized based on the retention times.

[4] = Metabolite profiling in monkey liver microsomes; assay type: in vitro ADME; design: key: +: peak detected; ?: peak observed; ND: not detected; details: 50 μM Compound 1, 2 hours
Protocol: as §1, §2, §3

[5] = group 1C (IV) pooled fecal extract
[6] = group 2C (PO) pooled fecal extract

SMILES | Total excretion (% AD), feces ([1]; IV (1C)) | Percent of Dose, Feces 0-24 h ([1]; IV) | Percent of Dose, Feces 0-24 h ([1]; Oral) | Total excretion (% AD), feces ([1]; PO (2C)) | % AD [1, 5] | % HPLC (percent of HPLC peak area in the sample extract) [1, 5] | % AD [1, 6] | % HPLC (percent of HPLC peak area in the sample extract) [1, 6] | % of the total fecal excretion ([1]; IV dose 50 mg/kg) | fecal component, % of the administered dose (% AD) ([1]; IV dose 50 mg/kg, 50 mg/kg) | % of the total fecal excretion ([1]; PO dose 100 mg/kg) | fecal component, % of the administered dose (% AD) ([1]; PO dose 100 mg/kg, 100 mg/kg) | In vitro metabolite profile in microsomes following incubation with Compound 1 (peak detection) [2] | In vitro metabolite profile in microsomes following incubation with Compound 1 (peak detection) [3] | In vitro metabolite profile in microsomes following incubation with Compound 1 (peak detection) [4]
C[C@@]1(O)[C@H](O)[C@@H](CO)O[C@H]1n1cnc2c(=O)[nH]c(N)nc21 [2′-C-methyl guanosine, 9-(2-C-methyl-β-D-ribofuranosyl)guanine, reference compound] | 16.0 % AD | 16.0% of Dose | 25.6% of Dose | 25.6 % AD | 16.0 % AD | 41.0% | 25.6 % AD | 28.1% | 41.0% | 16 % AD | 28.1% | 25.6 % AD and 26 % AD | + | + | +
CC(C)(CO)C(=O)SCCOP(=O)(NCc1ccccc1)OC[C@H]1O[C@@H](n2cnc3c(=O)[nH]c(N)nc32)[C@](C)(O)[C@@H]1O (mixture of isomers) [Compound 1, 3-hydroxy-2,2-dimethyl-thiopropionic acid S-(2-{[(2R,3R,4R,5R)-5-(2-amino-6-oxo-1,6-dihydro-purin-9-yl)-3,4-dihydroxy-4-methyl-tetrahydro-furan-2-ylmethoxy]-benzylamino-phosphoryloxy}-ethyl) ester] | 19.7 % AD | 19.7% of Dose | 65.6% of Dose | 65.6 % AD | 19.7 % AD | 50.6% | 65.6 % AD | 71.9% | 50.6% | 19.7 % AD and 20 % AD | 71.9% | 65.6 % AD and 66 % AD | + | + | +
C[C@@]1(O)[C@H](O)[C@@H](COP(=O)(O)O)O[C@H]1n1cnc2c(=O)[nH]c(N)nc21 [Compound 5, [(2R)-2-methyl-β-D-ribofuranosyl]guanine 5′-monophosphate] |  |  |  |  |  |  |  |  |  |  |  |  |  | + | +
